Laboratory results as given in patent publication US20260184704A1, “NLRP3 INFLAMMASOME INHIBITORS AND USES THEREOF” (Insilico Medicine IP Limited, priority 2023, published 2026).

Legend:
NLRP3 = molecular target: T1, NLRP3 (Homo sapiens, UniProt Q96P20); assay: NLRP3 Enzymatic Activity ADP-Glo Assay (Example B-4); format: biochemical; conditions: hydrolysis of ATP by NLRP3; NLRP3 15 nM, ATP 1 μM; read-out: NLRP3_ADP-Glo_IC50 (nM), Example B-4
T1 construct: purchased ICE YM2306T-H06MHS
Procedure: Example B-4: NLRP3 Enzymatic Activity ADP-Glo Assay
NLRP3 activity test experiment, measuring the hydrolysis of NLRP3 on the substrate ATP using the ADP-Glo assay. First, after adding an inhibitor containing 0.5% DMSO with Echo, add 5 μL of NLRP3 (ICE, YM2306T-H06MHS) enzyme solution to each well, centrifuge at 1000 rpm for 1 min at room temperature and react for 10 min. Then add 5 μL of ATP (Promega, V915A) substrate solution to each well for 90 min at room temperature; NLRP3 and ATP were prepared in 50 mM HEPES, 10 mM MgCl2, 0.01% Brij-35, 1 mM EGTA, and 2 mM DTT buffers at final concentrations of 15 nM and 1 μM, respectively. Subsequently, 10 μL ADP-Glo reagent solution (Promega, V9102) was added into each assay well, centrifuged at 1000 rpm for 1 min, and then incubated at room temperature for 45 min. Finally, 20 μL ADP-Glo detection solution (Promega, V9102) is added to each well, centrifuged at 1000 rpm for 1 min and reacted for 45 min at room temperature. The luminescence signal values were read using a BMG instrument and the IC50 values were determined by fitting the data to an S-shaped dose-response curve using nonlinear regression.

hERG = molecular target: T2, hERG (Homo sapiens, UniProt Q12809); assay: hERG Screening Assay Using Electrophysiological Manual Patch-Clamp (Example B-5); format: cell-based; conditions: hERG-CHO cells, whole-cell manual patch clamp, room temperature; read-out: hERG inhibition_IC50 (μM), Example B-5
T2 construct: expressed in transfected cells
T2 sequence (Q12809 whole entry): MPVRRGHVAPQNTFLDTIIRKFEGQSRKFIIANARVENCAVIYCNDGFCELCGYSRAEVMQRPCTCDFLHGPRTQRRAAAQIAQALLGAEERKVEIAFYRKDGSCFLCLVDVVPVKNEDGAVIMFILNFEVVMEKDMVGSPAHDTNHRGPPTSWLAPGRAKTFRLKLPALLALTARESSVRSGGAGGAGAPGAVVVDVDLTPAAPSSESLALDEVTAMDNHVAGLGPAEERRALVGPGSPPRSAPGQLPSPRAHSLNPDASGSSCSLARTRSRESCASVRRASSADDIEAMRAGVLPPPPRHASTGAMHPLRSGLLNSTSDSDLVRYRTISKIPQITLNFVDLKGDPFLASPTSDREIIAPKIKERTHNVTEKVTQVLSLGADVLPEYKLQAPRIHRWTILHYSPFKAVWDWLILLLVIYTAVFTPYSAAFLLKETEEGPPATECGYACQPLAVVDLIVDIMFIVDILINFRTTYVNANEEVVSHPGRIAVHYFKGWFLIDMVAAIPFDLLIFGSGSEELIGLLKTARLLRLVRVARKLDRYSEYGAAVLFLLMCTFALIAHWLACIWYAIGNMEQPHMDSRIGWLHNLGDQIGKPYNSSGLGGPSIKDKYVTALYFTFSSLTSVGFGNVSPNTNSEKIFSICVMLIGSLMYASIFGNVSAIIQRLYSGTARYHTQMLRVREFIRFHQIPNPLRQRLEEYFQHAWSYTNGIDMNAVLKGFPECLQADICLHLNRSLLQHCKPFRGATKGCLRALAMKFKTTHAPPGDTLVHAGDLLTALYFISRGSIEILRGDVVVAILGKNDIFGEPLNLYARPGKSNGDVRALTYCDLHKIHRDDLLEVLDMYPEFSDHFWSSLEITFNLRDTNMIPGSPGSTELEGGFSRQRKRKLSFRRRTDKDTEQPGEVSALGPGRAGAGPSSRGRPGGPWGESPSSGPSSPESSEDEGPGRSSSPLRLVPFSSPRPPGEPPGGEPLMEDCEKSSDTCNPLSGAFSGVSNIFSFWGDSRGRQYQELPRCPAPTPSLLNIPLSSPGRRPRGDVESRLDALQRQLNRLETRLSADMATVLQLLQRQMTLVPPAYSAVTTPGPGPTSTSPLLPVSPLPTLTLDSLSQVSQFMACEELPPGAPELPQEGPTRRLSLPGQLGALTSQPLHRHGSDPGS
Procedure: Example B-5: hERG Screening Assay Using Electrophysiological Manual Patch-Clamp
Cell lines: hERG-CHO cells
Method: CHO cells stably expressing the transcript of hERG were investigated by whole-cell manual patch clamp technique. hERG-CHO cells were cultured in 35 mm dishes to a maximum 70-80% confluence at 37° C. 5% CO2 incubator. The culture media (F12 medium (Invitrogen 11765062, ThermoFisher, USA) supplemented with 10% fetal bovine serum (Invitrogen 10099141, ThermoFisher, USA), 100 μg/mL G418 (Invitrogen 11811023, ThermoFisher, USA) and 100 μg/mL Hygromycin B (Invitrogen 10687010, ThermoFisher, USA)) was removed and the hERG-CHO cells were washed with extracellular solution (in mM): 140 NaCl, 5 KCl, 1 CaCl2), 1.25 MgCl2, 10 HEPES and 10 Glucose, pH 7.4 with NaOH. Then the cells were dissociated with 0.25% Trypsin-EDTA for 3-5 min, after that, the digestion solution was removed and the cells were resuspended in the extracellular solution with pipette by pipetting up and down several times. Resuspended cells were transferred to dishes for recording and cells were perfused with extracellular solution. Electrodes (a tip resistance of 3-5 MegOhm) were pulled from borosilicate grass pipette (Sutter instrument BF150-86-10) and filled with intracellular solution (in mM): 140 KCl, 1 MgCl2, 1 CaCl2), 10 EGTA and 10 HEPES, pH 7.2 with KOH. Data were obtained using a patch-clamp amplifier, signals were filtered at 2 kHz and sampled at frequencies of 10 kHz using pClamp 10 software. The cells were held at −100 mV and hERG potassium currents were activated by a 2 s depolarization potential of +20 mV followed by a repolarization potential of −50 mV for Is then back to the holding potential. Experiments were performed at room temperature.
Data analysis: Data were retrieved and analyzed using pClamp 10, GraphPad Prism 8 and Excel software. The peak amplitude of hERG currents were measured using clampfit and exported to Excel and GraphPad Prism 8 for subsequent analysis.
where Y is the inhibition % corresponding to X, [X] is the Log value of concentration of compound in the external solution and HillSlope is the Hill coefficient. The ratio of inhibition was calculated by using the equation: Inhibition=(1−I/Io)*100%, where Io and I are the current amplitude measured in control and in the presence of compounds, respectively. n is not less than 2 cells for each concentration.
Results: Compounds IC50 on hERG and concentration-response curves

[1] = tested on: THP-1 cells, IL-1β release; assay: IL-1β Release THP-1 Assay (Example B-3); format: cell-based; conditions: Homo sapiens; PMA-differentiated THP-1 cells, LPS then Nigericin, IL-1β by Elisa; read-out: Potency, THP-1 IL-1β, IC50 (nM), Example B-3
Procedure: Example B-3: IL-1β Release THP-1 Assay
THP-1 cells Culture RPMI1640 medium, 10% FBS, 1% PS, 55 uM β-Mer at 37° C. & 5% CO2 incubator.
IL-1β Release Detection • 1) Seed THP-1 in complete RPMI 1640 medium containing PMA into 96 well plate coated with poly-L-lysin incubate for 24 hours. • 2) Remove medium, wash the differentiated THP-1 cells with PBS, add FBS free RPMI 1640 medium. • 3) Add LPS and incubate for 3 hours at 37° C. & 5% CO2 incubator. • 4) Add compounds and incubate for 30 minutes at 37° C. & 5% CO2 incubator. • 5) Add Nigericin and incubate for 1 hour at 37° C. & 5% CO2 incubator. • 6) Collect supernatant to test IL-1β by Elisa.
• a) Assay robustness check with DMSO and Low control data:
[formula] • X: cpd concentration • Y: change % • Top and Bottom: Plateaus in same units as Y • logIC50: same log units as X • HillSlope: Slope factor or Hill slope

T1 sequence (Q96P20 whole entry): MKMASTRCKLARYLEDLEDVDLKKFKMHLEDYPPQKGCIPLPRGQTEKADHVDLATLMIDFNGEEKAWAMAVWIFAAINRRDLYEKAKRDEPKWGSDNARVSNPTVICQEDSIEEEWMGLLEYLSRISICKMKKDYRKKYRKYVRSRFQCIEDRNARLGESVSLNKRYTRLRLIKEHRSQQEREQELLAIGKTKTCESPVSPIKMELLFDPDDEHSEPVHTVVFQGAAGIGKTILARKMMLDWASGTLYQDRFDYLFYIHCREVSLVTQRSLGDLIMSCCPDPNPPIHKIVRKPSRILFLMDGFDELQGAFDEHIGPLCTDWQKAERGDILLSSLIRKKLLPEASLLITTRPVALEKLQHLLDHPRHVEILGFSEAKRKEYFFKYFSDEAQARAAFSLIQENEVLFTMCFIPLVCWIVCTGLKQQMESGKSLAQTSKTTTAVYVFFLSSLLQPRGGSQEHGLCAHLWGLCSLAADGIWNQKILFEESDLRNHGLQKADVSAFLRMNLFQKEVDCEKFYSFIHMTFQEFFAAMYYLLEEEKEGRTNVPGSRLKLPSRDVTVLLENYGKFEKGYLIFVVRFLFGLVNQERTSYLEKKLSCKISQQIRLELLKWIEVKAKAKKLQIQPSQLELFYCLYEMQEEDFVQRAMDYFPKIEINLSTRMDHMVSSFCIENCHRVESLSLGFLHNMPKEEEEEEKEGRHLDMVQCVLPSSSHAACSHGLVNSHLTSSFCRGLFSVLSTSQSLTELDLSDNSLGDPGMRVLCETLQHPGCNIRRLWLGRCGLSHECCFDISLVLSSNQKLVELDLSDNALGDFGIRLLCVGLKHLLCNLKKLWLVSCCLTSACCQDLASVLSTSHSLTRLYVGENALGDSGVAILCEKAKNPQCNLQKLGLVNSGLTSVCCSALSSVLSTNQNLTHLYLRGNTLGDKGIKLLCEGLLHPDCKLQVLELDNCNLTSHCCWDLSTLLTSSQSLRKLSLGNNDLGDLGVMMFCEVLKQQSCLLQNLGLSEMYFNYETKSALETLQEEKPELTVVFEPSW

IC50 (NLRP3) [nM]	IC50 [1] [nM]	SMILES	IC50 (hERG) [µM]
< 10	< 10	Cc1cc2c(c(O)c1C1=NN=C(N[C@H]3C[C@@](C)(O)C3)SC1)CC2 [Compound 59]	> 30
10 to 100	10 to 100	Cc1cc(C(F)(F)F)cc(O)c1C1=NN=C(N[C@H]2C[C@@](C)(O)C2)SC1 [Compound 10]	> 30
10 to 100	< 10	Cc1cc2c(c(O)c1C1=NN=C(N[C@@H]3CCCN(C)C3)SC1)CCO2 [Compound 28]	29.4
10 to 100	10 to 100	C[C@]1(O)C[C@@H](NC2=NN=C(c3c(C(F)F)cc4c(c3O)CCO4)CS2)C1 [Compound 66]	–

Second part, the compound before the results:

SMILES	IC50 (NLRP3) [nM]	IC50 [1] [nM]	IC50 (hERG) [µM]
Cc1cc2c(c(O)c1C1=NN=C(N[C@H]3C[C@@](C)(O)C3)SC1)CCO2 [Compound 31]	10 to 100	10 to 100	> 30
Cc1c(F)c2c(c(O)c1C1=NN=C(N[C@@H]3CCCN(C)C3)SC1)CCO2 [Compound 57]	10 to 100	10 to 100	–
Cc1cc(C(F)(F)F)cc(O)c1C1=NN=C(N[C@@H]2C[C@@H](F)CN(C)C2)SC1 [Compound 8]	10 to 100	10 to 100	19.1
